Data set [1] concerns Caco-2 cells. Description: Cytotoxicity, MTT assay. As to conditions: 24 h treatment. The format is cell-based, Human. Here is the method:
(§1) Caco-2 cells were obtained from the Shanghai Institute of Cell Biology (Shanghai, China) and cultured in EMEM with 10% fetal bovine serum, 1% antibiotic, and 1% nonessential amino acids in a humidified incubator at 37 °C with 5% CO2. The cell culture medium was replaced every two days with a new medium of equal volume. The Caco-2 cells were dispersed using trypsin-EDTA when they covered approximately 90% of the flask and were seeded on 6-well transwell culture plates with polyester membranes. The medium was replaced every other day with a new medium of equal volume. After being cultured for 21 days, the transepithelial electrical resistance (TEER) was determined to confirm the integrity of the Caco-2 cell monolayers. The Caco-2 cell monolayers were used for Ca transport experiments when the TEER exceeded 300 Ω·cm^2 [60, 66].
Cell cytotoxicity was determined using the MTT assay. […] Then, MTT solution (100 μL) was added per well and incubated for an additional 4 h. The MTT solution per well was replaced by an equal volume of DMSO solution to solubilize. Finally, the absorbance of the sample solution at 570 nm was measured.
(Tetrazolium assays rely on reduction of a dye to a coloured formazan, in cell work by metabolically active cells.)

Data set [2] relates to Caco-2 cell monolayer. Description: Ca transport across the Caco-2 cell monolayer. Format: in vitro ADME, Human. As to conditions: Caco-2 monolayer, mean ± SD, n = 3. Here is the method:
as §1
The Ca transport in the Caco-2 cell monolayer model was analyzed using previous methods. After 21 days of incubation, the culture medium of Caco-2 cells was discarded from each well, and monolayers were immediately washed with HBSS buffer (without Ca and magnesium) two times. The Caco-2 cell monolayers were transferred to a new 6-well culture plate containing 2 mL of HBSS buffer, and 2 mL of HBSS buffer was also added to the apical side. After incubating for 30 min, the HBSS on the apical side was replaced with 2 mL of HBSS containing VERG-Ca chelate (200 μM) or Ca (150 μg/mL), and the HBSS on the basolateral side was replaced with an equal volume of fresh HBSS buffer. After incubation for 2 h, 1 mL of HBSS in the basolateral side was removed to determine Ca content at the designed time (30, 60,120, and 180 min). At the same time, fresh HBSS buffer (1 mL) was added to the basolateral side to maintain a constant volume. The content of Ca was determined by atomic absorption spectrometry using HNO3 and HClO4 as the oxidizers.
In the experiments on the effects of vitamin D3 and phytate on Ca absorption, dietary factors (vitamin D3 and phytate) were first premixed with VERG-Ca chelate or CaCl2, respectively, at a mass ratio of 1:1. […]
Background: Caco-2 cells form a polarised layer with tight junctions and transporters.

The structures appear in SMILES notation. Peptide text beside a SMILES is read from it.

Consider `CC(C)[C@H](N)C(=O)N[C@@H](CCC(=O)O)C(=O)N[C@@H](CCCNC(=N)N)C(=O)NCC(=O)O` [ACP4, Val-Glu-Arg-Gly] (H-VERG-OH), for which the “effect on viability of Caco-2 cells” value in data set [1] (250 μM, vs control group (p < 0.05)) was “significantly decrease the viability”; in data set [1] (50–200 μM, vs control group) it was “no significant effect on cell viability”.
As for `[Ca+2].[Cl-].[Cl-]` [CaCl2], the “absorption amount of Ca with phytate” value in data set [2] (180 min (stated for CaCl2; not restated for the chelate), premixed with phytate at mass ratio 1:1) is recorded as 2.02 ± 0.24 μg/mg protein. For the same molecule, the “quantity of Ca of transport / absorption amount of Ca” value in data set [2] (180 min, apical to basolateral, HBSS, VERG-Ca chelate 200 μM or Ca 150 μg/mL, atomic absorption spectrometry) is 2.96 ± 0.28 μg/mg protein. In addition, the “absorption amount of Ca with vitamin D3” value in data set [2] (180 min, premixed with vitamin D3 at mass ratio 1:1) stood at 5.14 ± 0.23 μg/mg protein.
